Results: ChEMBL document CHEMBL3875218, “Bifunctional conjugates with potent inhibitory activity towards cyclooxygenase and histone deacetylase” (Bioorg Med Chem, 2017)

What was measured:
[1] = target: T1, Prostaglandin G/H synthase 2 (Homo sapiens, UniProt P35354); assay: Inhibition of recombinant human COX2 using arachidonic acid as substrate preincubated for 15 mins followed by substrate addition for 2 mins by Cayman based fluorescence assay
T1 sequence (P35354 whole entry): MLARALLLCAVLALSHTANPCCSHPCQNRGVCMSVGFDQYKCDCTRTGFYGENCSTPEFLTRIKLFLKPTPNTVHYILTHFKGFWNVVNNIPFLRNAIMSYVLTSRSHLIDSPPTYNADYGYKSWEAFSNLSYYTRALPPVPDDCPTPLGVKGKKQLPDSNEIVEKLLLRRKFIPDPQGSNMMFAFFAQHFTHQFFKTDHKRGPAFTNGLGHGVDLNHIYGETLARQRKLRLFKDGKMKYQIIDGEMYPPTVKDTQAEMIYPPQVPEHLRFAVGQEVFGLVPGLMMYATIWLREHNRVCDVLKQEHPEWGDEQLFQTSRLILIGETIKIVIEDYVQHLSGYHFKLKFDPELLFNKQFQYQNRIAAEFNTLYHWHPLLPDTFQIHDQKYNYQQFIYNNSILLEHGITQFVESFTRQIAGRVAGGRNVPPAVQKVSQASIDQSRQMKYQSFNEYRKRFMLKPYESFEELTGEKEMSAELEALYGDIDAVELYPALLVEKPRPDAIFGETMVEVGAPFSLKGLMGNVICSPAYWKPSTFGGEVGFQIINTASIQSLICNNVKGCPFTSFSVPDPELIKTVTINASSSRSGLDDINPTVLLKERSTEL

Histone deacetylase 2 = Histone deacetylase 2 (Homo sapiens, UniProt Q92769); assay: Inhibition of HDAC2 (unknown origin) after 24 hrs by SAMDI mass spectroscopic analysis
Sequence of Histone deacetylase 2 (Q92769 whole entry): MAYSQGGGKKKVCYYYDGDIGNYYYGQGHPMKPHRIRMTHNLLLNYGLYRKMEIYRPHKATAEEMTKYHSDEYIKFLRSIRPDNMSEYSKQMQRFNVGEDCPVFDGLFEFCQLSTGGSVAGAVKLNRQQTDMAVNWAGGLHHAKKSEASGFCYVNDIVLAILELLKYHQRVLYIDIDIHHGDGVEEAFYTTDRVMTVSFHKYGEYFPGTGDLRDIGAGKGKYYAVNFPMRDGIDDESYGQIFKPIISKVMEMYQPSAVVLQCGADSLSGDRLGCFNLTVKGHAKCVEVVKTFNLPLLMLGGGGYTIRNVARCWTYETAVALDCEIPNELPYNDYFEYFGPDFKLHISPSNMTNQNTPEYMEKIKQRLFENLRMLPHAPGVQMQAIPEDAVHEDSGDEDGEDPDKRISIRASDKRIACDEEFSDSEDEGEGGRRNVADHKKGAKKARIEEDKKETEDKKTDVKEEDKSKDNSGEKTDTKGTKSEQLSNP

[2] = target: T2, Prostaglandin G/H synthase 1 (Ovis aries) (UniProt P05979); assay: Inhibition of sheep COX1 at 10 uM using arachidonic acid as substrate preincubated for 15 mins followed by substrate addition for 2 mins by Cayman based fluorescence assay
T2 sequence (whole entry): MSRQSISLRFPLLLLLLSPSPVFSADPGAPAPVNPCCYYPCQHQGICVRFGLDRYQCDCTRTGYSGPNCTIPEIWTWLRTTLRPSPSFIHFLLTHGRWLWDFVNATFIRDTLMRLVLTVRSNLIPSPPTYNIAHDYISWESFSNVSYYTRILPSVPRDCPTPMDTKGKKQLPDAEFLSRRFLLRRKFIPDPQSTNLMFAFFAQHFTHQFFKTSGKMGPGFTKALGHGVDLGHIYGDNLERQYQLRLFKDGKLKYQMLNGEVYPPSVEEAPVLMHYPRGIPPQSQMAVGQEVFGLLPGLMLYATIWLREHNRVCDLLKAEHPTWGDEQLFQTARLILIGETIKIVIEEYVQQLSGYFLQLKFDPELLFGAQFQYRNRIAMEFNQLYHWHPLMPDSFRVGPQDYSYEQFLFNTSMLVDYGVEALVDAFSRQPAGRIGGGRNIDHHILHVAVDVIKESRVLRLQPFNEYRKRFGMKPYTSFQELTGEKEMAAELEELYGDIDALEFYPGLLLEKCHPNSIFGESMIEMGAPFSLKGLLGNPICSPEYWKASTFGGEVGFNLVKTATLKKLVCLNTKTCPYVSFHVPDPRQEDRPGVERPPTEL

[3] = target: T3, Prostaglandin G/H synthase 2 (Homo sapiens) (UniProt P35354); assay: Inhibition of recombinant human COX2 at 10 uM using arachidonic acid as substrate preincubated for 15 mins followed by substrate addition for 2 mins by Cayman based fluorescence assay
T3 sequence (whole entry): T1 sequence (P35354 whole entry)

[4] = Cytotoxicity against human HeLa cells assessed as cell growth inhibition after 72 hrs by MTT assay
[5] = target: T4, Protein deacetylase HDAC6 (Homo sapiens) (UniProt Q9UBN7); assay: Inhibition of HDAC6 in human LNCAP cells assessed as acetylated tubulin accumulation in cytosol after 24 hrs by Western blot analysis; type: cell-based
T4 sequence (whole entry): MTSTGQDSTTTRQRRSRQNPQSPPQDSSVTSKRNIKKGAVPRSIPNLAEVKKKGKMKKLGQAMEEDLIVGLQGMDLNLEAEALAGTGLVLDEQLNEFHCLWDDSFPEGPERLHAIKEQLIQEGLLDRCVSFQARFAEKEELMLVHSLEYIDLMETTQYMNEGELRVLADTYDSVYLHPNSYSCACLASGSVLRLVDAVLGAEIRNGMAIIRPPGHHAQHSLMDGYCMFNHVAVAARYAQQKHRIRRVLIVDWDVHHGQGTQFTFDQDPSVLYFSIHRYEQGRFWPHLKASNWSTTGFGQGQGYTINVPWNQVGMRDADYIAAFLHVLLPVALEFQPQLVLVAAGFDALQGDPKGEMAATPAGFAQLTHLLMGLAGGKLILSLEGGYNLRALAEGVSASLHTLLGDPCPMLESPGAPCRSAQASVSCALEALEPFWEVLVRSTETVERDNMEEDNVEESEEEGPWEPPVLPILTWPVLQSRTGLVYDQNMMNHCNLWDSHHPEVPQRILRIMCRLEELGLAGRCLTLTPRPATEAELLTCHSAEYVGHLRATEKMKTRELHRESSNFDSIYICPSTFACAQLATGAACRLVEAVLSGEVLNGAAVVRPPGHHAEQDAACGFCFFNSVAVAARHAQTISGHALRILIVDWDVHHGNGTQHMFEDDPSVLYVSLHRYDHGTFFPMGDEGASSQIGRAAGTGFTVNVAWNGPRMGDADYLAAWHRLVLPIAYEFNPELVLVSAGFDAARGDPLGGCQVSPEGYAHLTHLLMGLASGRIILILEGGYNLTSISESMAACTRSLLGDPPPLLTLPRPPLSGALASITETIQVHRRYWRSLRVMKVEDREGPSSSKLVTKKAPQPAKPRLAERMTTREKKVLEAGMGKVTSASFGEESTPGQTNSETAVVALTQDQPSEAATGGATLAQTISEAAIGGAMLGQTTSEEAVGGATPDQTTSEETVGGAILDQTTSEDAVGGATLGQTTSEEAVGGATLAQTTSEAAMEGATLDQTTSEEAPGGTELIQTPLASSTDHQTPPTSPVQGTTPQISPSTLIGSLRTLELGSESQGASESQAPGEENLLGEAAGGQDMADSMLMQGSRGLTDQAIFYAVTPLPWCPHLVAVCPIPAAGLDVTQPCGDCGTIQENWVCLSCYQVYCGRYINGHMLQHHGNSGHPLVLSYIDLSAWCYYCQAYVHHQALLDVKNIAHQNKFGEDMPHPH

LNCaP [6] = assay: Induction of cell cycle arrest in human LNCAP cells assessed as accumulation at lesser G1 phase at 2.5 uM after 24 hrs by propidium iodide staining based FACS analysis (reference value: 1.59%); type: functional
LNCaP [7] = assay: Induction of cell cycle arrest in human LNCAP cells assessed as accumulation at G1 phase at 2.5 uM after 24 hrs by propidium iodide staining based FACS analysis (reference value: 69.5%); type: functional
LNCaP [8] = assay: Induction of cell cycle arrest in human LNCAP cells assessed as accumulation at greater G2 phase at 2.5 uM after 24 hrs by propidium iodide staining based FACS analysis (reference value: 0.20%); type: functional

IC50 [1] [nM] | IC50 (Histone deacetylase 2) [nM] | inhibition [2] [%] | inhibition [3] [%] | inhibition [5] | SMILES | IC50 [4] [nM] | Activity (LNCaP [6]) [%] | Activity (LNCaP [7]) [%] | Activity (LNCaP [8]) [%]
330 | 854 | 22.8 | 98.1 | Dose-dependent effect | COc1ccc2c(c1)c(CC(=O)NCCCCCCC(=O)NO)c(C)n2C(=O)c1ccc(Cl)cc1 | 8870 | 1.95 | 62.5 | 0.35
300 | 4050 | 61.4 | 100 | Dose-dependent effect | Cc1ccc(-c2cc(C(F)(F)F)nn2-c2ccc(S(=O)(=O)NCCCCCCC(=O)NO)cc2)cc1 | 6500 | -0.32 | 57.4 | 1.67
